# What was measured:
# fatty liver mouse model [1] = experiment: Measurement of liver function indicators (AST, ALT) in blood; type: in vivo, C57BL/6 mice; settings: high-fat diet group, 50 mg/kg oral twice a week for 7 weeks, versus vehicle-administered control group, FIG. 4
# Procedure: (§1) Twenty-four 6-week-old C57BL/6 mice were acclimated for 1 week and then divided into two groups. One group (12 mice) was fed a normal diet, and the other group (12 mice) was fed a high-fat diet for 9 weeks. After 9 weeks, each of the normal diet group and the high-fat diet group was subdivided into two groups, and each of vehicle and 50 mg/kg of ML323 was orally administered thereto twice a week for 7 weeks. Normal diet and high-fat diet were continued during oral administration.
# After the experimental period was over, blood was collected from each mouse, and after 30 minutes, the supernatant (plasma) was separated from the blood by centrifugation at 2,000 rpm for 15 minutes. The separated plasma was analyzed by Seoul Clinical Laboratories (SCL) to measure the levels of AST and ALT, which are indicators of liver function.
# F4/80 = experiment: Expression of inflammatory factors in liver tissue (real-time PCR): F4/80; type: in vivo, C57BL/6 mice; settings: high-fat diet group, 50 mg/kg oral, versus control group, FIG. 5B
# Procedure: as §1
# (§2) The tissue harvested from each mouse was added to 1 ml of Easy blue (Intron) and then minced using a homogenizer. 200 μl of chloroform was added to and mixed well with the tissue, and the mixture was incubated for 3 minutes and then centrifuged at 13,200 rpm for 15 minutes at 4° C. After centrifugation, only the supernatant was transferred to a fresh tube, and the same amount of isopropyl alcohol was added thereto and mixed well therewith. After incubation for 10 minutes, centrifugation was performed at 13,200 rpm for 10 minutes at 4° C. After removing the supernatant, the RNA pellet was washed with 70% ethanol and centrifuged at 13,200 rpm for 5 minutes at 4° C. […]
# (§3) cDNA was synthesized from the extracted RNA using ReverTraAce RT master mix (TOYOBO), and then gene expression changes were measured using a real-time PCR system (ABI).
# CCL2 = experiment: Expression of inflammatory factors in liver tissue (real-time PCR): CCL2; type: in vivo, C57BL/6 mice; settings: high-fat diet group, 50 mg/kg oral, versus control group, FIG. 5B
# Procedure: as §1, §2, §3
# CDAA diet mice = experiment: Immunohistochemical analysis of liver tissue (H&E, F4/80, a-SMA), CDAA diet non-alcoholic fatty liver model; type: in vivo, C57BL/6 mice; settings: CDAA diet group, 50 mg/kg oral, FIG. 7
# Procedure: In addition, ten 6-week-old C57BL/6 mice were acclimated for 1 week and then fed CDAA (choline-deficient L-amino-defined) for 8 weeks to induce non-alcoholic fatty liver. Thereafter, the 10 mice were divided into two groups, to which a vehicle and 50 mg/kg of ML-323 were orally administered, respectively, and then liver tissues were stained with H&E, F4/80, and a-SMA.
# [2] = tested on: Human hepatic stellate LX-2 cells; experiment: Cytotoxicity measurement (WST assay); type: cell-based; settings: 48 hours
# Procedure: Human hepatic stellate LX-2 cells were seeded in a 96-well plate with DMEM (Welgene) containing 2% fetal bovine serum (Gibco) and 1% penicillin-streptomycin (Gibco), and cultured in an incubator for 24 hours at 37° C. under 5% CO2. Next, the cells were treated with ML323 at concentrations of 0, 1, 5, 10 and 25 μM. After 48 hours, 10 μl of EZ-Cytox was added to the cell culture medium and reacted for 30 minutes, and the absorbance at 450 nm was measured using a microplate reader.
# Cytotoxicity measurement (WST assay)
# TGF-β = experiment: Expression of inflammatory factors in liver tissue (real-time PCR): TGF-β; type: in vivo, C57BL/6 mice; settings: high-fat diet group, 50 mg/kg oral, versus control group, FIG. 5B
# Procedure: as §1, §2, §3
# fatty liver mouse model [3] = experiment: Immunohistochemical analysis of liver tissue (Sirius red, a-SMA), fatty liver mouse model; type: in vivo, C57BL/6 mice; settings: 50 mg/kg oral, FIG. 6
# Procedure: as §1
# The liver tissue harvested from each mouse was fixed in a 10% formalin solution, and a paraffin block and a slide were prepared using each liver tissue that had been fixed. The degree of fibrosis in liver tissue was measured using Sirius red solution staining and a-SMA immunostaining.
# COL1A1 [4] = experiment: Expression of hepatic fibrosis inducers in liver tissue (real-time PCR): COL1A1; type: in vivo, C57BL/6 mice; settings: high-fat diet group, 50 mg/kg oral, FIG. 5A
# Procedure: as §1, §2, §3
# fatty liver mouse model [5] = experiment: Measurement of liver weight change in fatty liver mouse model; type: in vivo, C57BL/6 mice; settings: 50 mg/kg oral twice a week for 7 weeks, FIG. 3
# Procedure: as §1
# After the experimental period was over, mice were sacrificed, and liver tissues were harvested and weighed.
# COL1A1 [6] = experiment: Measurement of cell fibrosis: COL1A1 mRNA in TGF-β-activated LX-2 cells; type: cell-based, Human; settings: TGF-β 2.5 ng/ml, ML323 1, 10, 25 μM, 24 hours, versus cells not treated with ML323, FIG. 2
# Procedure: Human hepatic stellate LX-2 cells were seeded in a 6-well plate with DMEM (Welgene) containing 2% fetal bovine serum (Gibco) and 1% penicillin-streptomycin (Gibco), and cultured in an incubator for 24 hours at 37° C. under 5% CO2. Thereafter, the medium was replaced with serum-free DMEM, and the cells were starved for 24 hours. Next, the cells were activated by treatment with TGF-β at a concentration of 2.5 ng/ml, and at the same time, the cells were treated with ML323 at concentrations of 0, 1, 10 and 25 μM. After 24 hours, the cells were harvested and used for gene expression analysis.
# as §3
structure (smiles),measurement,setting,value
"Cc1cnc(-c2ccccc2C(C)C)nc1NCc1ccc(-n2ccnn2)cc1 [ML323, N-(4-(1H-1,2,3-triazol-1-yl)benzyl)-2-(24 sopropylphenyl)-5-methylpyrimidin-4-amine]",decrease of ALT level in the blood,fatty liver mouse model [1],70%
same,decrease of AST level in the blood,fatty liver mouse model [1],40%
same,mRNA expression level of F4/80 in liver tissue,F4/80,significantly decreased
same,mRNA expression level of CCL2 in liver tissue,CCL2,significantly decreased
same,"inflammation and hepatic fibrosis in liver tissue (H&E staining, f4/80 and a-SMA immunostaining)",CDAA diet mice,significantly decreased
same,viability of LX-2 cells versus untreated cells,"[2]; 0, 1, 5, 10 and 25 μM, FIG. 1",no significant difference in viability
same,cytotoxicity,[2]; all treatment concentrations (up to 25 μM),did not exhibit cytotoxicity
same,mRNA expression level of TGF-β in liver tissue,TGF-β,significantly decreased
same,hepatic fibrosis in liver tissue (Sirius red staining and a-SMA immunostaining),fatty liver mouse model [3],significantly decreased
same,mRNA expression level of the COL1A1 gene in liver tissue,COL1A1 [4],greatly decreased
same,liver weight,fatty liver mouse model [5]; high-fat diet group,decreased
same,accumulation of fat in liver tissue,"fatty liver mouse model [5]; high-fat diet group, versus control group",significantly decreased
same,liver weight or size,"fatty liver mouse model [5]; normal diet group, versus control group",no significant difference in liver weight or size
same,mRNA expression of COL1A1,COL1A1 [6],significantly lower

# Reference: patent publication US20230310431A1, “COMPOSITION FOR PREVENTING OR TREATING LIVER FIBROSIS, CONTAINING TRIAZOLE DERIVATIVE AS ACTIVE INGREDIENT” (INDUSTRY-ACADEMIC COOPERATION FOUNDTION, YONSEI UNIVERSITY, priority 2020, published 2023)
